Test results: US20230228744A1, “DRY EYE DISEASE BIOMARKERS AND THEIR USE FOR TREATMENT” (Aldeyra Therapeutics, Inc., priority 2020, published 2023)

How the values were obtained:
[1] = tested on: subjects with dry eye disease; test: Phase 2/3 (TRANQUILITY) run-in cohort, dry eye signs and symptoms (environmental dosing and dry eye chamber); assay type: in vivo, human
Experimental: Changes over 24 hours after the first dose on Day 1 and changes over 90 minutes in the CAE will be assessed via mixed effect model for repeated measures (MMRM) of change from baseline (pre-dose Day 1), with baseline score as a covariate, and time and test article group as factors. For assessments that include both eyes, eye will be added as a factor.
Schirmer's Test will be assessed via MMRM of change from baseline (screening), with baseline score as a covariate, and pre/post dose, eye, and test article group as factors.
This study is a Phase 2/3, multi-center, randomized, double-masked, parallel design, vehicle-controlled trial designed to evaluate the efficacy and safety of 0.25% Reproxalap Ophthalmic Solution compared to vehicle in subjects with dry eye disease. Approximately twenty subjects will be enrolled in the Initial Cohort, and approximately 300 subjects will be enrolled in the Main Cohort. Male and female subjects at least 18 years of age with a subject-reported history of dry eye disease in both eyes and meeting all other eligibility criteria will be randomized to receive reproxalap or vehicle in a 1:1 ratio (approximately 150 subjects in each treatment group).
This study uses a challenge-model of dry eye disease known as a “dry eye chamber.” Challenge-model trials utilizing a controlled chamber are an FDA accepted design for pivotal endpoints. See, for example, FDA published “Dry Eye: Developing Drugs for Treatment” draft guidance; December 2020.
Dry eye chambers control relative humidity, temperature, airflow, and visual tasking in order to stress the ocular surface. Chambers simulate a “bad day” scenario in the life of a dry eye disease sufferer. Trial designs utilizing chambers are able to confirm the utility of drugs with rapid onset of action during an acute ocular surface challenge.
Secondary Endpoints: • Visual analog scale eye dryness score assessed over 24 hours after first dose on Day 1, and over 90 minutes in CAE® (Key Secondary Symptom Endpoint) • Ora Calibra® Ocular Discomfort Scale assessed over 24 hours after first dose on Day 1, and over 90 minutes in CAE® • Ocular Discomfort & 4-Symptom Questionnaire assessed over 24 hours after first dose on Day 1, and before and after CAE® • Ora Calibra® Conjunctival Allergen Challenge Ocular Itching Scale assessed over 24 hours after first dose on Day 1, and before and after CAE® • Schirmer's Test change from baseline before and after the final dose on Day 1 • Change in tear RASP levels before and after Dose 1 and 2 on Day 1 and Dose 3 on Day 2. Conjunctival redness over 24 hours after first dose on Day 1.
Visit 1 (Day −14 −16/+2, Screening) • Informed Consent and HIPAA • Demographics (e.g. gender, date of birth, race, ethnicity) • Medical/Medication & Ocular History • Urine Pregnancy Test (as needed) • Symptom Questionnaires: • a. Ocular Discomfort & 4-Symptom Questionnaire • b. Ora Calibra® Ocular Discomfort Scale • c. Ocular Dryness Visual Analog Scale • d. Ora Calibra® Conjunctival Allergen Challenge Ocular Itching Scale • Visual Acuity (ETDRS) • Slit Lamp Biomicroscopy with Conjunctival Redness assessment • Fluorescein Staining using the Ora Calibra® Corneal and Conjunctival Staining Scale • Inclusion/Exclusion Criteria Review • In-Office Vehicle Instillation by trained site staff (within 10 minutes prior to CAE® entry) • CAE® Exposure (90 minutes, vehicle administration at 45 minutes) with: • a. Ocular Dryness Visual Analog Scale every 5 minutes • b. Ora Calibra® Ocular Discomfort Scale every 5 minutes • c. Conjunctival Redness Photography at 0, 5, 10, 15, 20, 30, 45 (before 45-minute dose), 50, 55, 60, 65, 75, 90 minutes (+/−2 minutes) via digital photography • Slit Lamp Biomicroscopy with Conjunctival Redness assessment • Schirmer Test • Intraocular Pressure • Dilated Exam • Schedule for Visit 2 […]

[2] = tested on: patients; test: Overall clinical safety experience of topical ocular reproxalap; assay type: in vivo, human
[3] = Day 1, 24 hours of QID dosing, N = 12, vehicle +0.1, P 0.006

Question: Which “Change From Baseline, OD4S: Dryness (0-5)” value [1, 3] does the source give for CC(C)(O)c1nc2ccc(Cl)cc2cc1N [reproxalap, Reproxalap] here?
Answer: Its value is −1.2.

Question: And the “Change From Baseline, OD4S: Grittiness (0-5)” value [1, 3]?
Answer: Its value is −1.1.

Question: What about the “Change From Baseline, OD4S: Discomfort (0-5)” value ([1]; Day 1, 24 hours of QID dosing, N = 12, vehicle +0.4, P 0.003) of the same molecule?
Answer: The value was −0.7.

Question: What about the “Change From Baseline, Ocular Discomfort Scale (0-4)” value ([1]; Day 1, 24 hours of QID dosing, N = 12, vehicle +0.4, P 0.07) of the same molecule?
Answer: The value was −0.7.

Question: What about the “Change From Baseline, OD4S: Sting (0-5)” value ([1]; Day 1, 24 hours of QID dosing, N = 12, vehicle +0.4, P 0.23) of the same molecule?
Answer: The value was −0.1.

Question: And the “Change From Baseline, OD4S: Burn (0-5)” value ([1]; Day 1, 24 hours of QID dosing, N = 12, vehicle +0.8, P 0.07)?
Answer: Its value is −0.1.

Question: And the “Change From Baseline, Schirmer's Test” value ([1]; Day 1, improvement after a single dose, N = 12, vehicle +1.3, P 0.30)?
Answer: The value was “+3.4 mm”.

Question: What about the “Change From Baseline, VAS Dryness (0-100)” value ([1]; after environmental dosing, Day 1, 24 hours of QID dosing, 0.25% reproxalap, N = 12, vehicle +2, P 0.003) of the same molecule?
Answer: Its value is −26.

Question: And the “onset of acute improvements in ocular symptoms and objective sign after administration” value ([1]; dry eye chamber)?
Answer: Its value is “within minutes”.

Question: And the “Ocular Discomfort Score vs vehicle” value ([1]; dry eye chamber, run-in cohort, p<0.0001)?
Answer: Its value is “statistically significant improvement over vehicle”.

Question: What about the “VAS Ocular Dryness vs vehicle” value ([1]; dry eye chamber, run-in cohort, p=0.001) of the same molecule?
Answer: The value was “statistically significant improvement over vehicle”.

Question: And the “ocular redness vs vehicle” value ([1]; dry eye chamber, run-in cohort, p=0.03)?
Answer: The value was “statistically significant improvement over vehicle”.

Question: And the “most commonly reported adverse event in clinical trials” value ([2]; over 1,100 patients)?
Answer: The value was “mild instillation site irritation”.

Question: And the observed safety concerns ([2]; studied in over 1,100 patients)?
Answer: The observed safety concerns was “no observed safety concerns”.
